Key:
[1] = Phase I dose-escalating study, pharmacokinetics; assay type: in vivo
Excerpt: Open-label, dose-escalating, phase I trial of PM14 administered as a 3-hour infusion i.v. every 3 weeks (q3wk) in human patients (pts) with advanced solid tumors, adequate organ function and ECOG PS score of 0-1. Two schedules were explored: Schedule A (Day 1 [D1], Day 8 [D8]) and Schedule B (D1).
Secondary Endpoints • Safety: patients will be evaluable for safety if they have received at least one partial infusion of PM14. AEs will be graded according to the NCI-CTCAE v.4. Additionally, treatment-related discontinuations and treatment compliance (dose reduction, skipped doses and/or treatment delays due to AEs), will be described. • Pharmacokinetics: PK analyses will be evaluated in plasma and urine by standard non-compartmental analysis (compartmental modeling may be performed if appropriate). Plasma samples for PM14 PK analysis will be obtained in Cycle 1 from all patients, and also in Cycle 2 from patients treated during Step D of the CRM. In addition, the urine produced during Day 1 of Cycle 1 and Cycle 2 will be collected from patients treated during Step D of the CRM. • Pharmacogenetics: the presence or absence of PGt polymorphisms in genes relevant for PM14 disposition (distribution, metabolism and excretion) from a single blood sample collected at any time during the trial (but preferably at the same time as the pre-treatment PK sample on Day 1 of Cycle 1) will be assessed to explain individual variability in main PK parameters. • Pharmacogenomics: this exploratory analysis will be performed in those patients who sign the Informed Consent Form (ICF) for the PGx study. mRNA or protein expression levels of factors involved in DNA repair mechanisms, or related to the mechanism of action of PM14, will be evaluated from available tumor tissue samples obtained at diagnosis or relapse and in cell-free ctDNA. Their mutational status might also be analyzed, if relevant. Their correlation with the clinical response and outcome after treatment will be assessed. • Efficacy: patients will be evaluable for efficacy if they receive at least one complete infusion of PM14 and have at least one clinical or radiological tumor assessment as per RECIST v.1.1 or serum markers, or if they are considered to have failed treatment. Treatment failure will be defined as clinical deterioration, death due to PD or treatment discontinuation due to any treatment-related toxicity before any appropriate tumor assessments have been performed.

[2] = test system: MRI-H-121 xenografts (human renal carcinoma tumor line); assay: MRI-H-121 mouse xenograft study, antitumor activity; assay type: in vivo, mice; conditions: 1.25 mg/kg i.v. days 0, 7 and 14
Description: Compounds: Vials of off-white lyophilized PM14 cake were stored at −20° C. The cake was reconstituted with 2 ml of water for injection (Sigma-Aldrich, Co) to a concentration of 0.5 mg/ml. Further dilutions were made with a 5% glucose solution for injection/USP (Baxter, Inc.). A clear PM14 solution was obtained.
Animals: Female athymic nu/nu mice between 4 to 6 weeks of age were purchased from Envigo (Barcelona, Spain).
Tumor line: MRI-H-121 is a human renal carcinoma tumor line, originally obtained from the DCT Tumor Bank. Developed by Dr. A. E. Bogden, Mason Research Institute MA and maintained as a serial transplanted tumor line in athymic nude mice. Original tissue came from a patient at U. of Mass. Med. Center.
Study groups: Briefly, 4 to 6 week-old female athymic nu/nu mice were subcutaneously implanted into their right flank with a MRI-H-121 tissue from serial transplanted donor mice. Tumors were removed from donor animals and were cut into fragments (3 mm^3). Tissue was debrided of membrane, hemorrhagic and necrotic areas, placed in Matrigel™ (Corning Incorporated Life Sciences) and subcutaneously implanted. Recipient mice were anesthetised by inhalation of isoflurane, a small incision into the skin of the back was made and one tumor fragment per mouse was transplanted with tweezers. The mice were monitored daily.
Tumor bearing animals were randomly allocated into 2 groups (N=10/group): PM14 administered at 1.25 mg/kg and placebo. All treatments were intravenously administered once a week for 3 consecutive weeks (days 0, 7 and 14).
Tumor measurements were determined using digital calipers (Fowler Sylvac, S235PAT). The formula to calculate volume for a prolate ellipsoid was used to estimate tumor volume (mm^3) from 2-dimensional tumor measurements:
Where, a: length (longest diameter) and b: width (shortest diameter) in mm of a tumor.
Tumor volume and animal body weights were measured 2-3 times per week starting from the first day of treatment.
When tumors reached ca. 190 mm^3, tumor bearing animals were randomly allocated into the following experimental groups (N=10/group):
Treatments were initiated on Day 0 and were intravenously administered once per week for 3 consecutive weeks (days 0, 7 and 14).
Tumor volume data from groups following the 1st, 2nd, 3rd, 4th and 5th weeks were compared using a two tailed Mann Whitney U test. The data are presented as medians and interquartile range (IQR).
Complete tumor regression (CR) was defined when tumor volume <63 mm^3 for 2 or more consecutive measurements. Survival statistical differences between groups were assessed by Kaplan Meier curves applying the log rank test.

## COc1c(C)cc2c(c1O)[C@@H]1[C@@H]3[C@@H]4SC[C@]5(N[C@H](CO)Cc6c5[nH]c5ccccc65)C(=O)OC[C@@H](c5c6c(c(C)c(OC(C)=O)c54)OCO6)N3[C@@H](O)[C@H](C2)N1C [PM14, ECUBECTEDIN]
[1]; human, in vivo
  Vd: 128 L
  clearance: 98.3 mL/min
[1]; human, in vivo, half-life
  half-life: 16 h
[1]; human, in vivo, terminal half-life, median (range)
  half-life: 15.9 h
[1]; patients
  administered dose recovered in urine: Less than 1.6%
  distribution into peripheral tissues: moderate
  hepatic extraction ratio: low
[1]; tested doses 0.25-5.6 mg/rn^2
  pharmacokinetics, dose linearity: Linear pharmacokinetics
[2]
  Median survival time: 32.5 days
  antitumor activity: very strong antitumor activity
[2]; Day 0
  TV, mm^3 median: 190.8 mm^3
[2]; Day 7, 1.25 mg/kg
  TV, mm^3 median: 401.2 mm^3
[2]; Day 14, 1.25 mg/kg
  TV, mm^3 median: 472.7 mm^3
[2]; Day 21, 1.25 mg/kg
  TV, mm^3 median: 743.8 mm^3
[2]; Day 28, 1.25 mg/kg
  TV, mm^3 median: 1392 mm^3
[2]; Day 35, 1.25 mg/kg
  TV, mm^3 median: 2015 mm^3

From patent US20240277705A1, “DOSAGE REGIMENS FOR ECUBECTEDIN” (PHARMA MAR S.A., priority 2021, published 2024)
